Experimental data reported in patent US12491225B2, “Antiviral compositions and methods” (RALCO NUTRITION, INC., priority 2014, dated 2025).

Columns and labels:
Settings in all cases: trolox equivalents
[1] = Total ORAC
From the text: (§1) Antiviral EO compositions as described herein can provide antioxidant properties to a subject or host system. Antioxidants can enhance neutrophil function, improve fertility, reduce heat stress related pregnancy losses, reduce frequency of retained placentas, and reduce metritis in dairy cows. Oxygen radical absorbance capacity (ORAC) is the ability of a compound or composition to act as a proton donor and reducing agent for oxygen radicals. In particular, ORAC measures the ability of a compound or composition to act as a reducing agent for peroxyl radicals, hydroxyl radicals, peroxynitrite, superoxide anion, and singlet oxygen, the five most damaging oxygen radicals.
(§2) ORAC capabilities of EO compositions were tested Brunswick Labs, Massachusetts. Table 20 illustrates the antioxidant ability of several embodiments provided herein, as compared to an industry standard antioxidant, Vitamin E. Results are expressed as trolox equivalents (TE/100 g) for each composition: […]

[2] = ORAC, superoxide anion
From the text: as §1, §2

[3] = ORAC, hydroxyl radical
From the text: as §1, §2

[4] = ORAC, peroxyl radical
From the text: as §1, §2

[5] = ORAC, peroxynitrite
From the text: as §1, §2

[6] = ORAC, singlet oxygen
From the text: as §1, §2

Substance	Total ORAC [1] [TE/100 g]	ORAC, Superoxide anion [2] [TE/100 g]	ORAC, Hydroxyl radical [3] [TE/100 g]	ORAC, Peroxyl radical [4] [TE/100 g]	ORAC, Peroxynitrite [5] [TE/100 g]	ORAC, Singlet oxygen [6] [TE/100 g]
Arabinogalactan	96400	16600	46400	20600	1200	11600
Vitamin E [Natural Vitamin E]	39200	0	0	2100	0	37100
